Test results published in patent publication US20250223268A1, “4-Methylsulfonylbenzamide Compound, Preparation Method, Herbicidal Composition And Use” (Jiangsu Flag Chemical Industry Co., Ltd., priority 2022, published 2025).

What was measured:
Experiment in all cases: Greenhouse herbicidal activity assay, post-emergence
Format in all cases: in vivo
[1] = tested on: Eclipta prostrata; details: Post-emergence test, rate 150 g a.i./hm^2, grade by fresh weight inhibition rate; for pest or weed control at 150 g/ha: Eclipta prostrata, read-out: Control efficacy grade, Eclipta prostrata
Outline: (§1)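 Weeds were sown in nutrient soil in 7 cm pots and grown in a growth chamber to the 3-6 leaf stage, then foliar-sprayed, air-dried and returned to the chamber. Fresh weight inhibition was scored 14-21 days later in bands from A (≥80% to 100%) to E (<20%).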

[2] = tested on: Cyperus iria; details: Post-emergence test, rate 150 g a.i./hm^2, grade by fresh weight inhibition rate; for pest or weed control at 150 g/ha: Cyperus iria, read-out: Control efficacy grade, Cyperus iria
Outline: as §1

[3] = tested on: Digitaria sanguinalis; details: Post-emergence test, rate 150 g a.i./hm^2, grade by fresh weight inhibition rate; for pest or weed control at 150 g/ha: Digitaria sanguinalis, read-out: Control efficacy grade, Digitaria sanguinalis
Outline: as §1

[4] = tested on: Leptochloa chinensis; details: Post-emergence test, rate 150 g a.i./hm^2, grade by fresh weight inhibition rate; for pest or weed control at 150 g/ha: Dinebra chinensis, read-out: Control efficacy grade, Leptochloa chinensis
Outline: as §1

[5] = tested on: Echinochloa crusgalli; details: Post-emergence test, rate 150 g a.i./hm^2, grade by fresh weight inhibition rate; for pest or weed control at 150 g/ha: Echinochloa crus-galli, read-out: Control efficacy grade, Echinochloa crusgalli
Outline: as §1

Row | SMILES | Control efficacy grade, Eclipta prostrata [1] | Control efficacy grade, Cyperus iria [2] | Control efficacy grade, Digitaria sanguinalis [3] | Control efficacy grade, Leptochloa chinensis [4] | Control efficacy grade, Echinochloa crusgalli [5] | pest or weed control at 150 g/ha [1] [%] | pest or weed control at 150 g/ha [2] [%] | pest or weed control at 150 g/ha [3] [%] | pest or weed control at 150 g/ha [4] [%] | pest or weed control at 150 g/ha [5] [%]
1 | C=C(C)CSc1c(S(C)(=O)=O)ccc(C(=O)Nc2nnc(C)o2)c1Cl [Compound 3-142] | A (Fresh weight inhibition rate≥80% to 100%) | A (Fresh weight inhibition rate≥80% to 100%) | A (Fresh weight inhibition rate≥80% to 100%) | A (Fresh weight inhibition rate≥80% to 100%) | A (Fresh weight inhibition rate≥80% to 100%) | – | – | – | – | –
2 | C#CCSc1c(S(C)(=O)=O)ccc(C(=O)Nc2nnc(C)o2)c1Cl [Compound 3-147] | A (Fresh weight inhibition rate≥80% to 100%) | B (Fresh weight inhibition rate≥260% to <80%) | A (Fresh weight inhibition rate≥80% to 100%) | A (Fresh weight inhibition rate≥80% to 100%) | B (Fresh weight inhibition rate≥260% to <80%) | – | – | – | – | –
3 | Cc1nnc(NC(=O)c2ccc(S(C)(=O)=O)c(SCC#N)c2Cl)o1 [Compound 3-192] | A (Fresh weight inhibition rate≥80% to 100%) | A (Fresh weight inhibition rate≥80% to 100%) | A (Fresh weight inhibition rate≥80% to 100%) | A (Fresh weight inhibition rate≥80% to 100%) | A (Fresh weight inhibition rate≥80% to 100%) | – | – | – | – | –
4 | Cc1nnc(NC(=O)c2ccc(S(C)(=O)=O)c(SCCC#N)c2Cl)o1 [Compound 3-197] | A (Fresh weight inhibition rate≥80% to 100%) | A (Fresh weight inhibition rate≥80% to 100%) | A (Fresh weight inhibition rate≥80% to 100%) | A (Fresh weight inhibition rate≥80% to 100%) | A (Fresh weight inhibition rate≥80% to 100%) | – | – | – | – | –
5 | COCSc1c(S(C)(=O)=O)ccc(C(=O)Nc2nnc(C)o2)c1Cl [Compound 3-262] | A (Fresh weight inhibition rate≥80% to 100%) | A (Fresh weight inhibition rate≥80% to 100%) | A (Fresh weight inhibition rate≥80% to 100%) | A (Fresh weight inhibition rate≥80% to 100%) | A (Fresh weight inhibition rate≥80% to 100%) | – | – | – | – | –
6 | CCCSc1c(S(C)(=O)=O)ccc(C(=O)Nc2nnco2)c1Cl [Compound 3-267, 2-chloro-4-(methylsulfonyl)-N-(1,3,4-oxadiazol-2-yl)-3-(propylthio)benzamide] | – | – | – | – | – | 80 to 100 | 80 to 100 | 80 to 100 | 80 to 100 | 80 to 100
7 | CCC[S+]([O-])c1c(S(C)(=O)=O)ccc(C(=O)Nc2nnco2)c1Cl (stereo not shown) [Compound 3-268, 2-chloro-4-(methylsulfonyl)-N-(1,3,4-oxadiazol-2-yl)-3-(propylsulfinyl)benzamide] | – | – | – | – | – | 80 to 100 | 80 to 100 | 80 to 100 | 80 to 100 | 80 to 100
8 | CC(C)Sc1c(S(C)(=O)=O)ccc(C(=O)Nc2nnco2)c1Cl [Compound 3-272] | A (Fresh weight inhibition rate≥80% to 100%) | A (Fresh weight inhibition rate≥80% to 100%) | C (Fresh weight inhibition rate≥40% to <60%) | A (Fresh weight inhibition rate≥80% to 100%) | A (Fresh weight inhibition rate≥80% to 100%) | – | – | – | – | –
9 | CCCCSc1c(S(C)(=O)=O)ccc(C(=O)Nc2nnco2)c1Cl [Compound 3-277] | A (Fresh weight inhibition rate≥80% to 100%) | A (Fresh weight inhibition rate≥80% to 100%) | C (Fresh weight inhibition rate≥40% to <60%) | A (Fresh weight inhibition rate≥80% to 100%) | A (Fresh weight inhibition rate≥80% to 100%) | – | – | – | – | –
10 | CC(C)CSc1c(S(C)(=O)=O)ccc(C(=O)Nc2nnco2)c1Cl [Compound 3-293] | A (Fresh weight inhibition rate≥80% to 100%) | A (Fresh weight inhibition rate≥80% to 100%) | A (Fresh weight inhibition rate≥80% to 100%) | A (Fresh weight inhibition rate≥80% to 100%) | A (Fresh weight inhibition rate≥80% to 100%) | – | – | – | – | –
11 | CS(=O)(=O)c1ccc(C(=O)Nc2nnco2)c(Cl)c1SCC1CC1 [Compound 3-298] | A (Fresh weight inhibition rate≥80% to 100%) | A (Fresh weight inhibition rate≥80% to 100%) | A (Fresh weight inhibition rate≥80% to 100%) | A (Fresh weight inhibition rate≥80% to 100%) | A (Fresh weight inhibition rate≥80% to 100%) | – | – | – | – | –
12 | CS(=O)(=O)c1ccc(C(=O)Nc2nnco2)c(Cl)c1SC1CC1 [Compound 3-303] | A (Fresh weight inhibition rate≥80% to 100%) | B (Fresh weight inhibition rate≥260% to <80%) | A (Fresh weight inhibition rate≥80% to 100%) | A (Fresh weight inhibition rate≥80% to 100%) | A (Fresh weight inhibition rate≥80% to 100%) | – | – | – | – | –
13 | CS(=O)(=O)c1ccc(C(=O)Nc2nnco2)c(Cl)c1SC1CCC1 [Compound 3-308] | A (Fresh weight inhibition rate≥80% to 100%) | A (Fresh weight inhibition rate≥80% to 100%) | A (Fresh weight inhibition rate≥80% to 100%) | A (Fresh weight inhibition rate≥80% to 100%) | A (Fresh weight inhibition rate≥80% to 100%) | – | – | – | – | –
14 | CS(=O)(=O)c1ccc(C(=O)Nc2nnco2)c(Cl)c1SC1CCCC1 [Compound 3-313] | A (Fresh weight inhibition rate≥80% to 100%) | A (Fresh weight inhibition rate≥80% to 100%) | A (Fresh weight inhibition rate≥80% to 100%) | A (Fresh weight inhibition rate≥80% to 100%) | A (Fresh weight inhibition rate≥80% to 100%) | – | – | – | – | –
15 | CS(=O)(=O)c1ccc(C(=O)Nc2nnco2)c(Cl)c1SC1CCCCC1 [Compound 3-318] | A (Fresh weight inhibition rate≥80% to 100%) | A (Fresh weight inhibition rate≥80% to 100%) | A (Fresh weight inhibition rate≥80% to 100%) | A (Fresh weight inhibition rate≥80% to 100%) | A (Fresh weight inhibition rate≥80% to 100%) | – | – | – | – | –
16 | CS(=O)(=O)c1ccc(C(=O)Nc2nnco2)c(Cl)c1SCC(F)(F)F [Compound 3-323] | A (Fresh weight inhibition rate≥80% to 100%) | A (Fresh weight inhibition rate≥80% to 100%) | A (Fresh weight inhibition rate≥80% to 100%) | A (Fresh weight inhibition rate≥80% to 100%) | A (Fresh weight inhibition rate≥80% to 100%) | – | – | – | – | –
17 | CS(=O)(=O)c1ccc(C(=O)Nc2nnco2)c(Cl)c1SCC(F)F [Compound 3-328] | A (Fresh weight inhibition rate≥80% to 100%) | A (Fresh weight inhibition rate≥80% to 100%) | A (Fresh weight inhibition rate≥80% to 100%) | A (Fresh weight inhibition rate≥80% to 100%) | A (Fresh weight inhibition rate≥80% to 100%) | – | – | – | – | –
18 | C=CCSc1c(S(C)(=O)=O)ccc(C(=O)Nc2nnco2)c1Cl [Compound 3-338] | A (Fresh weight inhibition rate≥80% to 100%) | A (Fresh weight inhibition rate≥80% to 100%) | C (Fresh weight inhibition rate≥40% to <60%) | A (Fresh weight inhibition rate≥80% to 100%) | A (Fresh weight inhibition rate≥80% to 100%) | – | – | – | – | –
19 | CS(=O)(=O)c1ccc(C(=O)Nc2nnco2)c(Cl)c1SCCC#N [Compound 3-373] | A (Fresh weight inhibition rate≥80% to 100%) | A (Fresh weight inhibition rate≥80% to 100%) | A (Fresh weight inhibition rate≥80% to 100%) | A (Fresh weight inhibition rate≥80% to 100%) | A (Fresh weight inhibition rate≥80% to 100%) | – | – | – | – | –
20 | CCCSc1c(S(C)(=O)=O)ccc(C(=O)Nc2nnc(CC)o2)c1Cl [Compound 3-383] | A (Fresh weight inhibition rate≥80% to 100%) | A (Fresh weight inhibition rate≥80% to 100%) | B (Fresh weight inhibition rate≥260% to <80%) | B (Fresh weight inhibition rate≥260% to <80%) | A (Fresh weight inhibition rate≥80% to 100%) | – | – | – | – | –
